Reference: patent publication US9060529B2, “Method for treatment of lacto-N-biose-containing solution” (Morinaga Milk Industry Co., Ltd., priority 2010, dated 2015)

Columns and labels:
[1] = Examples 1-3: TLC analysis of heated liquid preparations containing LNB; type: physicochemical
Description: Each of the heated samples was cooled to 15° C., and 1 μL was then spotted onto a silica gel thin layer chromatography (TLC) plate. The plate was developed using an 80% acetonitrile solvent, and was then immersed in a 5% sulfuric acid solution and colorized by heating in an oven. The existence or absence of decomposed or denatured products (N-acetylglucosamine dehydrate and galactose) and the amount of those decomposed or denatured products were evaluated visually to determine whether or not decomposition had occurred, and if so, the extent of that decomposition.
100 g of the LNB powder prepared in the above Production Example 1 was dissolved in 9.9 kg of purified water, and 0.1 M hydrochloric acid was added to the solution to adjust the pH to 4.5. The resulting aqueous solution was preheated for 3 minutes at 70° C. using a UHT sterilizer (manufactured by Morinaga Engineering Co., Ltd.), subsequently sterilized at 130° C. for 2 seconds, and then cooled to 15° C., yielding 10 kg of a liquid preparation containing LNB.
100 g of the LNB powder prepared in the above Production Example 1 was added to 9.9 kg of a commercially available orange juice (manufactured by Morinaga Milk Industry Co., Ltd.), and the resulting mixture was heated at 80° C. for 15 minutes and then cooled to 15° C. 100 mL aliquots of the juice were used to fill glass bottles, which were then sealed, yielding 100 bottles of orange juice containing LNB.
100 g of the LNB powder prepared in the above Production Example 1 was dissolved in 9.9 kg of purified water, and 0.1 M citric acid was added to the solution to adjust the pH to 5.0. The resulting aqueous solution was heated at 90° C. for 30 minutes, and then cooled to 15° C., yielding 10 kg of a liquid preparation containing LNB.

[2] = Test Example 3: effect of heating temperature and time on stability of LNB at various pH (2% LNB in buffer, TLC); type: physicochemical; set-up: key to extent of decomposition: −: no decomposition; ±: slight decomposition; +: partial decomposition; ++: majority decomposition; +++: almost total decomposition; settings: for stability of LNB (decomposition by TLC): 65-120° C., 5-60 minutes
Description: Samples of the LNB powder prepared in the above Production Example 1 were dissolved at a concentration of 2% in a 0.1 M citrate buffer solution (pH: 5.5, 5.0, 4.0, 3.0) to prepare a series of liquid compositions containing LNB. Further, a portion of the LNB solution having a pH of 3.0 was used to prepare solutions having a pH of 2.0 or 1.0 by adding 1 M hydrochloric acid.
In a separate preparation, a sample of the LNB powder was dissolved at a concentration of 2% in a 0.1 M phosphate buffer having a pH of 7.0 to prepare a liquid composition containing LNB.
Sets containing the liquid compositions containing LNB at each pH value were each heated at a predetermined temperature (65, 70, 80, 90, 100 or 120° C.) for a predetermined period of time (5, 10, 20, 30 or 60 minutes).
Each of the heated liquid compositions containing LNB was cooled, and the same method as that described for Test Example 1 was used to determine whether or not decomposition had occurred, and if so, the extent of that decomposition. Based on the results, the extent of decomposition was evaluated against the criteria listed below.
• − no decomposition • ± slight decomposition • + partial decomposition • ++ majority decomposition • +++ almost total decomposition 2) Test Results: […]

With `CC(=O)N[C@H]1C(O)O[C@H](CO)[C@@H](O)[C@@H]1O[C@@H]1O[C@H](CO)[C@H](O)[C@H](O)[C@H]1O` (stereo partly drawn) [LNB, Lacto-N-biose] the “decomposition of LNB (TLC)” value ([1]; Example 1: aqueous solution pH 4.5, 70° C. for 3 minutes, then 130° C. for 2 seconds) was “had not decomposed”, the “decomposition of LNB (TLC)” value ([1]; Example 2: orange juice pH 4.51, 80° C. for 15 minutes) was “had not decomposed” and the “decomposition of LNB (TLC)” value ([1]; Example 3: aqueous solution pH 5.0 (citric acid), 90° C. for 30 minutes) was “had not decomposed”. For the same compound, the extent of decomposition ([2]; pH 4.0, 65° C., 5 minutes) was “−”, the extent of decomposition ([2]; pH 4.0, 65° C., 10 minutes) was “−” and the extent of decomposition ([2]; pH 4.0, 65° C., 20 minutes) was “−”. For the same compound, the extent of decomposition ([2]; pH 4.0, 65° C., 30 minutes) was “−”, the extent of decomposition ([2]; pH 4.0, 65° C., 60 minutes) was “−” and the extent of decomposition ([2]; pH 4.0, 70° C., 5 minutes) was “−”. The extent of decomposition ([2]; pH 4.0, 70° C., 10 minutes) was “−”, the extent of decomposition ([2]; pH 4.0, 70° C., 20 minutes) was “−” and the extent of decomposition ([2]; pH 4.0, 70° C., 30 minutes) was “−”. The extent of decomposition ([2]; pH 4.0, 70° C., 60 minutes) was “−”, the extent of decomposition ([2]; pH 4.0, 80° C., 5 minutes) was “−” and the extent of decomposition ([2]; pH 4.0, 80° C., 10 minutes) was “−”. For the same compound, the extent of decomposition ([2]; pH 4.0, 80° C., 20 minutes) was “−”, the extent of decomposition ([2]; pH 4.0, 80° C., 30 minutes) was “−” and the extent of decomposition ([2]; pH 4.0, 80° C., 60 minutes) was “−”. For the same compound, the extent of decomposition ([2]; pH 4.0, 90° C., 5 minutes) was “−”, the extent of decomposition ([2]; pH 4.0, 90° C., 10 minutes) was “−” and the extent of decomposition ([2]; pH 4.0, 90° C., 20 minutes) was “−”. The extent of decomposition ([2]; pH 4.0, 90° C., 30 minutes) was “−”, the extent of decomposition ([2]; pH 4.0, 90° C., 60 minutes) was “−” and the extent of decomposition ([2]; pH 4.0, 100° C., 5 minutes) was “−”. For the same compound, the extent of decomposition ([2]; pH 4.0, 100° C., 10 minutes) was “−”, the extent of decomposition ([2]; pH 4.0, 100° C., 20 minutes) was “−” and the extent of decomposition ([2]; pH 4.0, 100° C., 30 minutes) was “−”. The extent of decomposition ([2]; pH 4.0, 100° C., 60 minutes) was “−”, the extent of decomposition ([2]; pH 4.0, 120° C., 5 minutes) was “−” and the extent of decomposition ([2]; pH 4.0, 120° C., 10 minutes) was “−”. The extent of decomposition ([2]; pH 4.0, 120° C., 20 minutes) was “−”, the extent of decomposition ([2]; pH 4.0, 120° C., 30 minutes) was “−” and the extent of decomposition ([2]; pH 4.0, 120° C., 60 minutes) was “−”. For the same compound, the extent of decomposition ([2]; pH 5.0, 65° C., 5 minutes) was “−”, the extent of decomposition ([2]; pH 5.0, 65° C., 10 minutes) was “−” and the extent of decomposition ([2]; pH 5.0, 65° C., 20 minutes) was “−”. The extent of decomposition ([2]; pH 5.0, 65° C., 30 minutes) was “−”, the extent of decomposition ([2]; pH 5.0, 65° C., 60 minutes) was “−” and the extent of decomposition ([2]; pH 5.0, 70° C., 5 minutes) was “−”. For the same compound, the extent of decomposition ([2]; pH 5.0, 70° C., 10 minutes) was “−”, the extent of decomposition ([2]; pH 5.0, 70° C., 20 minutes) was “−” and the extent of decomposition ([2]; pH 5.0, 70° C., 30 minutes) was “−”. For the same compound, the extent of decomposition ([2]; pH 5.0, 70° C., 60 minutes) was “−”, the extent of decomposition ([2]; pH 5.0, 80° C., 5 minutes) was “−” and the extent of decomposition ([2]; pH 5.0, 80° C., 10 minutes) was “−”. The extent of decomposition ([2]; pH 5.0, 80° C., 20 minutes) was “−”, the extent of decomposition ([2]; pH 5.0, 80° C., 30 minutes) was “−” and the extent of decomposition ([2]; pH 5.0, 80° C., 60 minutes) was “−”. For the same compound, the extent of decomposition ([2]; pH 5.0, 90° C., 5 minutes) was “−”, the extent of decomposition ([2]; pH 5.0, 90° C., 10 minutes) was “−” and the extent of decomposition ([2]; pH 5.0, 90° C., 20 minutes) was “−”. For the same compound, the extent of decomposition ([2]; pH 5.0, 90° C., 30 minutes) was “−”, the extent of decomposition ([2]; pH 5.0, 90° C., 60 minutes) was “−” and the extent of decomposition ([2]; pH 5.0, 100° C., 5 minutes) was “−”. The extent of decomposition ([2]; pH 5.0, 100° C., 10 minutes) was “−”, the extent of decomposition ([2]; pH 5.0, 100° C., 20 minutes) was “−” and the extent of decomposition ([2]; pH 5.0, 100° C., 30 minutes) was “−”. For the same compound, the extent of decomposition ([2]; pH 5.0, 100° C., 60 minutes) was “±”, the extent of decomposition ([2]; pH 5.0, 120° C., 5 minutes) was “−” and the extent of decomposition ([2]; pH 5.0, 120° C., 10 minutes) was “−”. For the same compound, the extent of decomposition ([2]; pH 5.0, 120° C., 20 minutes) was “±”, the extent of decomposition ([2]; pH 5.0, 120° C., 30 minutes) was “±” and the extent of decomposition ([2]; pH 5.0, 120° C., 60 minutes) was “±”. For the same compound, the extent of decomposition ([2]; pH 5.5, 65° C., 5 minutes) was “−”, the extent of decomposition ([2]; pH 5.5, 65° C., 10 minutes) was “−” and the extent of decomposition ([2]; pH 5.5, 65° C., 20 minutes) was “−”. The extent of decomposition ([2]; pH 5.5, 65° C., 30 minutes) was “−”, the extent of decomposition ([2]; pH 5.5, 65° C., 60 minutes) was “−” and the extent of decomposition ([2]; pH 5.5, 70° C., 5 minutes) was “−”. For the same compound, the extent of decomposition ([2]; pH 5.5, 70° C., 10 minutes) was “−”, the extent of decomposition ([2]; pH 5.5, 70° C., 20 minutes) was “−” and the extent of decomposition ([2]; pH 5.5, 70° C., 30 minutes) was “−”. The extent of decomposition ([2]; pH 5.5, 70° C., 60 minutes) was “−”, the extent of decomposition ([2]; pH 5.5, 80° C., 5 minutes) was “−” and the extent of decomposition ([2]; pH 5.5, 80° C., 10 minutes) was “−”. The extent of decomposition ([2]; pH 5.5, 80° C., 20 minutes) was “−”, the extent of decomposition ([2]; pH 5.5, 80° C., 30 minutes) was “−” and the extent of decomposition ([2]; pH 5.5, 80° C., 60 minutes) was “−”. For the same compound, the extent of decomposition ([2]; pH 5.5, 90° C., 5 minutes) was “−”, the extent of decomposition ([2]; pH 5.5, 90° C., 10 minutes) was “−” and the extent of decomposition ([2]; pH 5.5, 90° C., 20 minutes) was “−”. For the same compound, the extent of decomposition ([2]; pH 5.5, 90° C., 30 minutes) was “−”, the extent of decomposition ([2]; pH 5.5, 90° C., 60 minutes) was “±” and the extent of decomposition ([2]; pH 5.5, 100° C., 5 minutes) was “−”. The extent of decomposition ([2]; pH 5.5, 100° C., 10 minutes) was “−”, the extent of decomposition ([2]; pH 5.5, 100° C., 20 minutes) was “−” and the extent of decomposition ([2]; pH 5.5, 100° C., 30 minutes) was “±”. The extent of decomposition ([2]; pH 5.5, 100° C., 60 minutes) was “+”, the extent of decomposition ([2]; pH 5.5, 120° C., 5 minutes) was “−” and the extent of decomposition ([2]; pH 5.5, 120° C., 10 minutes) was “±”. The extent of decomposition ([2]; pH 5.5, 120° C., 20 minutes) was “+”, the extent of decomposition ([2]; pH 5.5, 120° C., 30 minutes) was “+” and the extent of decomposition ([2]; pH 5.5, 120° C., 60 minutes) was “+”. The extent of decomposition ([2]; pH 7.0, 100° C., 5 minutes) was “+”, the extent of decomposition ([2]; pH 7.0, 100° C., 10 minutes) was “+” and the extent of decomposition ([2]; pH 7.0, 100° C., 20 minutes) was “++”. For the same compound, the extent of decomposition ([2]; pH 7.0, 100° C., 30 minutes) was “++”, the extent of decomposition ([2]; pH 7.0, 100° C., 60 minutes) was “+++” and the extent of decomposition ([2]; pH 7.0, 120° C., 5 minutes) was “++”. The extent of decomposition ([2]; pH 7.0, 120° C., 10 minutes) was “+++”, the extent of decomposition ([2]; pH 7.0, 120° C., 20 minutes) was “+++” and the extent of decomposition ([2]; pH 7.0, 120° C., 30 minutes) was “+++”. The extent of decomposition ([2]; pH 7.0, 120° C., 60 minutes) was “+++”, the “stability of LNB (decomposition by TLC)” value ([2]; pH 7.0 or 1.0) was “decomposition occurred even after heating for 5 minutes” and the “stability of LNB (decomposition by TLC)” value ([2]; pH not less than 2.0 to not more than 5.5) was “stable and underwent almost no decomposition”.
